Data as given in ChEMBL document CHEMBL3108690, “Discovery and characterization of a novel dihydroisoxazole class of α-amino-3-hydroxy-5-methyl-4-isoxazolepropionic acid (AMPA) receptor potentiators” (J Med Chem, 2013).
Blank lines part the entries; values can stand above or below the compound they belong to. Active and inactive are the calls of the source. No cut-off for these calls is given here.

Experiments:
[1] = test system: Mus musculus; assay: Toxicity in CD-1 mouse assessed as induction of convulsion at 0.32 to 0.56 mg/kg, sc measured after 5 to 11 mins; assay type: organism-based; design: route subcutaneous; conditions: in vivo
[2] = Terminal half life in Sprague-Dawley rat plasma at 0.2 mg/kg, sc qd; assay type: ADME, organism-based; design: dose 0.2 mg/kg, route subcutaneous; conditions: read-out: beta t1/2 (converted)
[3] = test system: Rattus norvegicus; assay: Reversal of MK-801-mediated increase in low delta component of local field potential in Sprague-Dawley rat at 0.001 mg/kg, iv administered as bolus dose measured after 5 mins; assay type: functional, organism-based; design: dose 0.001 mg/kg
[4] = test system: Rattus norvegicus; assay: Reversal of MK-801-mediated decrease in paired-pulse facilitation in Sprague-Dawley rat at 0.003 mg/kg, iv administered as bolus dose measured after 5 mins; assay type: functional, organism-based; design: dose 0.003 mg/kg
[5] = Terminal half life in Sprague-Dawley rat brain at 0.2 mg/kg, sc qd; assay type: ADME, organism-based; design: dose 0.2 mg/kg, route subcutaneous; conditions: read-out: beta t1/2 (converted)
[6] = test system: Rattus norvegicus; assay: Reversal of MK-801-mediated decrease in paired-pulse facilitation in Sprague-Dawley rat at 0.001 mg/kg, iv administered as bolus dose measured after 5 mins; assay type: functional, organism-based; design: dose 0.001 mg/kg
[7] = test system: Mus musculus; assay: Induction of cGMP level in sc dosed CD-1 mouse cerebellum administered as qd measured after 0.5 hrs by EIA; assay type: functional, organism-based
[8] = Ratio of total drug level from brain to plasma in Sprague-Dawley rat at 0.2 mg/kg, sc qd; assay type: ADME, organism-based; design: dose 0.2 mg/kg, route subcutaneous; conditions: read-out: BPR
[9] = test system: Mus musculus; assay: Ratio of unbound concentration in brain required to cause convulsion in CD-1 mouse at 0.32 to 0.56 mg/kg, sc to unbound concentration in brain required to cause induction of cGMP level in CD-1 mouse cerebellum at 0.32 mg/kg, sc
[10] = Ratio of free drug level from brain to plasma in Sprague-Dawley rat at 0.2 mg/kg, sc qd; assay type: ADME, organism-based; design: dose 0.2 mg/kg, route subcutaneous; conditions: read-out: K(p,uu,brain)
[11] = test system: Rattus norvegicus; assay: Reversal of MK-801-mediated increase in low delta component of local field potential in Sprague-Dawley rat at 0.003 mg/kg, iv administered as bolus dose measured after 5 mins; assay type: functional, organism-based; design: dose 0.003 mg/kg
[12] = organism: Mus musculus; assay: Positive allosteric modulation of AMPAR in mouse embryonic stem cell-derived neurons assessed as intracellular Ca2+ flux by FLIPR assay in presence of cyclothiazide relative to AMPA; assay type: cell-based
[13] = test system: Rattus norvegicus; assay: Toxicity in Sprague-Dawley rat assessed as induction of convulsion at 0.32 to 0.56 mg/kg, sc measured after 13 to 23 mins; assay type: organism-based; design: route subcutaneous; conditions: in vivo
[14] = test system: human MDR1; assay: Efflux ratio of apparent permeability from basolateral to apical side over apical to basolateral side in MDCK cells transfected with human MDR1 at 2 uM; assay type: ADME, cell-based, Canis lupus familiaris; conditions: dog
[15] = Fraction unbound in Sprague-Dawley rat plasma at 0.01 mg/kg, iv; assay type: ADME, organism-based; design: dose 0.01 mg/kg, route intravenous
[16] = (§1) Ratio of unbound concentration in brain required to cause induction of cGMP level in CD-1 mouse cerebellum at 0.32 mg/kg, sc over unbound concentration in brain required to cause reversal of MK-801-mediated increase in low delta component of local field potential in Sprague-Dawley rat at 0.003 mg/kg, iv administered as bolus dose; assay type: functional
[17] = Fraction unbound in Sprague-Dawley rat brain at 0.01 mg/kg, iv; assay type: ADME, organism-based; design: dose 0.01 mg/kg, route intravenous
[18] = as §1, with “Therapeutic index, ratio” for “Ratio”, “convulsion” for “induction of cGMP level”, “Sprague-Dawley rat” for “CD-1 mouse cerebellum”, “0.32 to 0.56” for “0.32”, “to” for “over”; assay type: organism-based; conditions: read-out: TI
[19] = Apparent permeability from apical to basolateral side in MDCK cells at 2 uM by LC-MS/MS analysis; assay type: ADME, cell-based, Canis lupus familiaris; conditions: dog
[20] = Displacement of [3H]PF-04725379 from Sprague-Dawley rat AMPAR after 2 hrs by liquid scintillation counting analysis
[21] = test system: Rattus norvegicus; assay: Toxicity in Sprague-Dawley rat assessed as induction of tremor at 0.32 to 0.56 mg/kg, sc measured at 10 mins; assay type: organism-based; design: dose 0.32-0.56 mg/kg, route subcutaneous; conditions: in vivo
[22] = Positive allosteric modulation of AMPAR in mouse embryonic stem cell-derived neurons assessed as intracellular Ca2+ flux by FLIPR assay; assay type: cell-based
[23] = Ratio of drug level from brain to plasma in CD-1 mouse at 0.1 mg/kg, sc qd measured after 0.5 hrs; assay type: ADME, organism-based; design: dose 0.1 mg/kg, route subcutaneous; conditions: read-out: BPR
[24] = test system: MDR1; assay: Efflux ratio of apparent permeability in MDCK cells expressing MDR1; assay type: ADME, cell-based, Canis lupus familiaris; conditions: dog
[25] = Apparent permeability in MDCK cells; assay type: ADME, cell-based, Canis lupus familiaris; conditions: dog
[26] = Apparent intrinsic clearance in human liver microsomes; assay type: ADME; conditions: read-out: CLH(app)

half-life [2]: 24 min
half-life [5]: 24 min
Kp [8]: 1.04
Kp uu [10]: 0.54
efflux ratio at 2 µM [14]: 1.45
fraction unbound [15]: 0.027
fraction unbound [17]: 0.014
Papp A→B at 2 µM [19]: 18.6 ×10⁻⁶ cm/s
Ki [20]: < 24 nM
SMILES: CC(C)S(=O)(=O)NC[C@@H]1CC(c2ccc(N3CCCC3)c(F)c2)=NO1
Activity [1]: Toxic
Activity [3]: inactive
Activity [4]: Active
Activity [6]: inactive
Activity [7]: Dose-dependent effect
Ratio [9]: 5
Activity [11]: Active
Emax [12]: 147%
Activity [13]: Toxic
Ratio [16]: 100
selectivity ratio [18]: 500
Activity [21]: Toxic
EC50 [22]: 123 nM

efflux ratio at 2 µM [14]: 1.4
Papp A→B at 2 µM [19]: 16.7 ×10⁻⁶ cm/s
SMILES: CC(C)S(=O)(=O)NCC1CC(c2ccc(-c3ccc(C#N)cc3)c(F)c2)=NO1 (racemic)
Emax [12]: 124%
EC50 [22]: 2640 nM

efflux ratio at 2 µM [14]: 1.6
Ki [20]: 5760 nM
SMILES: CC(C)S(=O)(=O)NC[C@H]1CC(c2ccc(N3CCCC3)c(F)c2)=NO1
Emax [12]: 114%
EC50 [22]: 4690 nM

efflux ratio at 2 µM [14]: 12.1
Papp A→B at 2 µM [19]: 3.93 ×10⁻⁶ cm/s
Kp at 0.5 h [23]: 0.03
SMILES: CC(=O)N[C@H]1CCN(c2ccc(C3=NO[C@H](CNS(=O)(=O)C(C)C)C3)cc2F)C1
Emax [12]: 143%
EC50 [22]: < 10 nM

efflux ratio at 2 µM [14]: 0.89
SMILES: CC(C)S(=O)(=O)NCC1CC(c2ccc(N3CCCC3)cc2)=NO1 (racemic)
Emax [12]: 169%
EC50 [22]: 253 nM

efflux ratio at 2 µM [14]: 0.84
Papp A→B at 2 µM [19]: 22 ×10⁻⁶ cm/s
SMILES: CC(C)S(=O)(=O)NCC1CC(c2ccc(-c3cccnc3)c(F)c2)=NO1 (racemic)
Emax [12]: 157%
EC50 [22]: 294 nM

Further lines, the compound ahead of its results:

SMILES: CC(C)S(=O)(=O)NCC1CC(c2ccc(-c3cccc(C#N)c3)c(F)c2)=NO1 (racemic)
Emax [12]: 156%
efflux ratio at 2 µM [14]: 1.17
Papp A→B at 2 µM [19]: 15.1 ×10⁻⁶ cm/s
EC50 [22]: 1850 nM

SMILES: CC(C)S(=O)(=O)NCC1CC(c2ccc(N3CCCC3)c(F)c2)=NO1 (racemic)
Emax [12]: 128%
EC50 [22]: 155 nM

SMILES: CC(C)S(=O)(=O)NCC1CC(c2cccc(F)c2)=NO1 (racemic)
EC50 [22]: > 31600 nM

SMILES: CC(C)S(=O)(=O)NC[C@@H]1CC(c2ccc(-c3ccccc3C#N)c(F)c2)=NO1
efflux ratio at 2 µM [14]: 1.18
Papp A→B at 2 µM [19]: 29.1 ×10⁻⁶ cm/s
Ki [20]: 24 nM
EC50 [22]: < 10 nM

SMILES: CC(C)S(=O)(=O)NCC1CC(c2ccc(-c3ccccc3C#N)c(F)c2)=NO1 (racemic)
Emax [12]: 152%
efflux ratio at 2 µM [14]: 1.16
Papp A→B at 2 µM [19]: 12.9 ×10⁻⁶ cm/s
EC50 [22]: 86.9 nM

SMILES: CC(=O)NC[C@@H]1CC(c2ccc(N3CCCC3)c(F)c2)=NO1
efflux ratio [24]: 0.98
Papp [25]: 35 ×10⁻⁶ cm/s
microsomal CLint [26]: 26 µL/min/mg
EC50 [22]: 4400 nM

SMILES: CC(C)S(=O)(=O)NCC1CC(c2ccc(-c3ccccc3)c(F)c2)=NO1 (racemic)
Emax [12]: 138%
EC50 [22]: 3210 nM
